Data as given in patent publication US5843925A, “Methods for inhibiting angiogenesis, proliferation of endothelial or tumor cells and tumor growth” (American Cyanamid Company, priority 1994, dated 1998).
Structures can show the parent of a compound that is named as a salt.

What was measured:
Format in all cases: cell-based
HTB 161 = assay: Antiproliferative activity in human tumor cell lines (HTB 161)
Procedure: (§1) PROTOCOLS 1, 2, and 3 are described in greater detail hereinbelow. In general, according to PROTOCOLS 1 and 2, the target ABAE and/or Human Tumor cells are exposed to the compound of Formula I for 48 hours. PROTOCOL 3 exposes ABAE cells to the compounds for 4 days. A detailed description of the protocol is as follows:
(§2) The antiproliferative activity of the compounds of Formula I of the present invention is evaluated in a panel comprised of human tumor cell lines and an adult bovine aortic endothelial cell line (ABAE). The human tumor cell lines are from
(§3) Cultures are renewed after 20 passages with cells from a fresh stock of batch-frozen early passage cells. Cell lines are routinely checked for mycoplasma contamination (Genprobe). In a laminar flow hood, cells (1-5×10^4) are plated into 96-well microtiter plates in a volume of 0.1 ml/well with a bulk microtiter dispenser (Denley). […] Compounds are added using a Tomtec dispenser which simultaneously dispenses from one 96-well plate, containing the drug dilutions, to the plates containing the cells. After two days of continuous drug exposure, 50% cold trichloroacetic acid (TCA) is added to 10% final concentration to fix the cells, and after 60 minutes at 4° C., the TCA is aspirated and the plates are washed 5 times with deionized water using a microtiter plate washer. […] A 0.4% solution of the dye, sulforhodamine B, in […] is added to the plates, and the plates are washed 5 times with 1% glacial acetic acid using the automatic plate washed. The bound stain is solubilized with 0.1 ml of 10 mM Tris base. The optical densities are read from an automatic spectrophotometric plate reader (Dynatech) directly to a main frame computer (VAX 8600).
(§4) Positive controls, that include standard chemotherapeutic drugs (i.e., adriamycin, cisplatin, etc.), are included in every experiment.
(§5) Background optical density measurements (complete media-cells, and complete media+drug-cells) are automatically subtracted from the appropriate control and test wells. Mean values and standard errors are determined from duplicate wells. A measure is also made of the optical density at time when the drugs are added. The number of cells after treatment (P), as % of control, is calculated for every concentration of drug, as follows: [formula] wherein: T is optical density measurement for treated cells after 48 hours;
(§6) C is optical density measurement for untreated cells after 48 hours;
(§7) Co is optical density measurement for cells at the time of drug addition.
(§8) IC50 of growth inhibition is calculated from the sets of P values using the RS-1 data package (BBN Software).
(§9) Antiproliferative Activity in Human Tumor Cell Lines
(§10) The antiproliferative activity of the compounds of Formula I is evaluated in the panel comprised of human tumor cell lines as listed in PROTOCOL 1. This assay is a slight modification of PROTOCOL 1. The modifications include:
(§11) 1) each concentration for each compound is tested in a single well;
(§12) 2) compounds are tested at 20, 4, 0.8, 0.16 microgram/ml and additionally in some experiments at 100 and 0.32 microgram/ml;
(§13) 3) samples are pipetted into a 96-well plate for each of the cell lines by a Beckman Biomek 1000 SL robot;
(§14) 4) after fixing with TCA each well is washed with 0.35 ml distilled water twice, not five times;
(§15) 5) after staining with sulforhodamine B each well is washed 3 times, not five times;
(§16) 6) the growth inhibition (I) as % of control, is calculated using the RS-1 data package (BBN Software), for every concentration of drug, as follows: [formula] wherein: T is optical density measurement for treated cells after 48 hours;
(§17) 7) IC50 of growth inhibition is determined graphically from dose response curves, as is known in the art.

CACO2 = assay: Antiproliferative activity in human tumor cell lines (CACO2); settings: Caco-2, CACO2 colon tumor cell line
Procedure: as §1, §2
(§18) All cell lines are maintained in log phase in RPMI 1640 media, supplemented with 5% fetal calf serum, penicillin/streptomycin and 2 mM L-glutamine. Cultures are renewed after 20 passages with cells from a fresh stock of batch-frozen early passage cells. Cell lines are routinely checked for mycoplasma contamination (Genprobe). In a laminar flow hood, cells (1-5×10^4) are plated into 96-well microtiter plates in a volume of 0.1 ml/well with a bulk microtiter dispenser (Denley). […] At this concentration, dimethylsulfoxide has no effect on cell growth. Compounds are added using a Tomtec dispenser which simultaneously dispenses from one 96-well plate, containing the drug dilutions, to the plates containing the cells. After two days of continuous drug exposure, 50% cold trichloroacetic acid (TCA) is added to 10% final concentration to fix the cells, and after 60 minutes at 4° C., the TCA is aspirated and the plates are washed 5 times with deionized water using a microtiter plate washer. The number of cells on the plate are quantitated using a protein dye-binding assay (Monks et al., 1991). A 0.4% solution of the dye, sulforhodamine B, in glacial acetic acid is added to the plates, and the plates are washed 5 times with 1% glacial acetic acid using the automatic plate washed. The bound stain is solubilized with 0.1 ml of 10 mM Tris base. The optical densities are read from an automatic spectrophotometric plate reader (Dynatech) directly to a main frame computer (VAX 8600).
as §4, §5, §6, §7, §8, §9, §10, §11, §12, §13, §14, §15
(§19) 6) the growth inhibition (I) as % of control, is calculated using the RS-1 data package (BBN Software), for every concentration of drug, as follows: [formula] wherein: T is optical density measurement for treated cells after 48 hours; […]

A2780S = assay: Antiproliferative activity in human tumor cell lines (A2780S); settings: A2780S ovarian tumor cell line
Procedure: as §1, §2, §3, §4, §5, §6, §7, §8, §9, §10, §11, §12, §13, §14, §15, §16, §17

MIP = assay: Antiproliferative activity in human tumor cell lines (MIP); settings: MIP colon tumor cell line
Procedure: as §1, §2, §18, §4, §5, §6, §7, §8, §9, §10, §11, §12, §13, §14, §15, §19

A2780/DDP = assay: Antiproliferative activity in human tumor cell lines (A2780/DDP); settings: A2780/DDP ovarian tumor cell line
Procedure: as §1, §2, §3, §4, §5, §6, §7, §8, §9, §10, §11, §12, §13, §14, §15, §16, §17

Human Tumor cell lines = assay: Antiproliferative activity in panel of human tumor cell lines (PROTOCOL 1 and PROTOCOL 2); settings: Homo sapiens; average over the tumor cell lines of Table 3
Procedure: The antiproliferative activity of the compounds of Formula I in an Adult Bovine Aortic Endothelial (ABAE) cell line and in Human Tumor cells lines is evaluated in three similar assays that measure growth inhibition. The assays are identified as follows:
as §1, §2, §18, §4, §5, §6, §7, §8, §9, §10, §11, §12, §13, §14
5) after staining with sulforhodamine B each well is washed 3 times, not five times; […]

Row | SMILES | IC50 (HTB 161) [µg/mL] | IC50 (CACO2) [µg/mL] | IC50 (A2780S) [µg/mL] | IC50 (MIP) [µg/mL] | IC50 (A2780/DDP) [µg/mL] | IC50 (Human Tumor cell lines) [µg/mL]
1 | CN(C)CC(=O)Nc1cc(N(C)C)c2c(c1O)C(=O)C1=C(O)[C@]3(O)C(=O)C(C(N)=O)=C(O)[C@@H](N(C)C)C3CC1C2 (stereo partly drawn) [Example 2, [4S-(4a,12aa-1-4,7-Bis(dimethylamino)-9-[[(dimethylamino)acetyl]amino]]-1,4,,4a,5,5a,6,11,12a-octahvdro-3,10,12,12a-tetrahydroxy-1,11-dioxo-2-napththacenecarboxamidedihydrochloride] | 6 | 5.1 | 6.5 | 4.6 | 7 | 5.8
2 | CCCCCCNCC(=O)Nc1cc(N(C)C)c2c(c1O)C(=O)C1=C(O)[C@]3(O)C(=O)C(C(N)=O)=C(O)[C@@H](N(C)C)C3CC1C2 (stereo partly drawn) [Example 4, [4S-(4α,12aα)]-4,7-Bis(dimethylamino)-9-[(hexylamino)acetyl]amino]-1,4,4a,5,5a,6,11,12a-octahydro-3,10,12,12a-tetrahydroxy-1,11-dioxo-2-naphthacenecarboxamide dihydrochloride] | 2 | 1.9 | 2.3 | 2.8 | 2.3 | 2.3
3 | CCCCCCCNCC(=O)Nc1cc(N(C)C)c2c(c1O)C(=O)C1=C(O)[C@]3(O)C(=O)C(C(N)=O)=C(O)[C@@H](N(C)C)C3CC1C2 (stereo partly drawn) [Example 5, [4S-(4α,12aα)]-4,7-Bis(dimethylamino)-9-[[(heptylamino)acetyl]amino]-1,4,4a,5,5a,6,11,12a-octahydro-3,10,12,12a-tetrahydroxy-1,11-dioxo-2-naphthacenecarboxamide dihydrochloride] | 2.3 | 3.7 | 2.5 | 3.2 | 2.5 | 2.4
